Assay results reported in patent US20230310334A1, “LIPID NANOPARTICLE” (SHENZHEN SHENXIN BIOTECHNOLOGY CO., LTD., priority 2020, published 2023).

System: luciferase mRNA (Fluc mRNA) expression
Test: Luciferase mRNA delivery performance in vivo of lipid nanoparticles prepared from amino lipid compounds (IVIS imaging)
Design: species or system BALB/c mice
Settings: Fluc mRNA LNP, 0.5 mg/kg, imaging 6 hours after injection, male BALB/c mice; for Average fluorescence intensity (intramuscular) / Average fluorescence intensity (subcutaneous): preparation process I (DOPE); for Average fluorescence intensity (tail vein): preparation process II (DSPC)
Experimental: Example 40: Evaluation of Luciferase mRNA Delivery Performance In Vivo of Lipid Nanoparticles Prepared from Amino Lipid Compounds
Preparation of lipid nanoparticles:
Preparation process I: The amino lipid compound described in the present invention and DOPE, cholesterol, PEG2000-DMG were mixed and dissolved in absolute ethanol in a molar ratio of 45:10:42.5:2.5. Two microinjection pumps were used, and the ratio of ethanol solution to sodium acetate solution (50 mM, pH=4.0) was controlled to be 1:3. A crude solution of lipid nanoparticles was prepared in a micro flow channel chip, then dialyzed for 6 hours with 1×PBS at a controlled temperature of 4° C. by using a dialysis cassette (Fisher, MWCO 20,000), and filtered with a 0.22 μm microporous filter membrane before use. The mass ratio of the amino lipid compound to luciferase mRNA (Fluc mRNA) was about 10:1. The administration route included subcutaneous and intramuscular injections.
Preparation process II: the molar ratio of amino lipid compound to DSPC, cholesterol, PEG2000-DMG was 50:10:38.5:1.5, and the preparation process was identical to the preparation process I. The administration route was tail vein administration.
Animal preparation: 6-week-old male BALB/c mice with body weights of about 20 g were selected, and fed in an SPF-grade feeding room. Animal experiments were strictly carried out according to the guidelines of the national health institution and the requirements of animal ethics. In vivo delivery: 9 mice were randomly selected per group and injected with lipid nanoparticles at a dose of 0.5 mg/kg by three administration routes: subcutaneous, intramuscular, and tail vein, respectively (three animals per administration route). After 6 hours, […] of 10 mg/mL potassium […] was injected into each mouse via the tail vein, and after 10 minutes, the mice were placed under an in vivo imaging system (IVIS-200, Xenogen), and the total fluorescence intensity of each mouse was observed and recorded by photographing. The expression intensities of Fluc mRNA delivered by the three administration routes of representative amino lipid compounds were shown in Tables 1-3. DLin-MC3 was used as a control.

SMILES	Average fluorescence intensity (intramuscular)	Average fluorescence intensity (subcutaneous)	Average fluorescence intensity (tail vein)
CCCCC/C=C\C/C=C\CCCCCCCCC(CCCCCCCC/C=C\C/C=C\CCCCC)OC(=O)CCCN(C)C [Compound 35, (6Z,9Z,28Z,31Z)-heptatriacont-6,9,28,31-tetraene-19-yl 4-(N,N-dimethylamino)butanoate, reference compound]	3.9E+03	4.1E+04	6.2E+06
CCCCCCCCCOC(=O)CCCCCCCN(CCCCO)CCCCCCCC(=O)OC(CCCCCCCC)CCCCCCCC [Compound 36, reference compound]	–	1.1E+05	4.2E+05
CCCCCCCCCOC(=O)CCCCCCCN(CCCCCCCC(=O)OC(CCCCCCCC)CCCCCCCC)CCCN(C)C [Compound 37, reference compound]	2.5E+06	2.0E+05	–
